In DBAASP:
In brackets after ≈: the same amount, converted by molar mass. Blank lines part the entries; values can stand above or below the compound they belong to.

What was measured:
Experiment in all cases: ≥ marks a high value that may be exact or a test limit, other limits are often not marked, values filed in µg/mL are converted to µM
[1] = test system: Enterococcus faecalis ATCC 29212
[2] = test system: Streptococcus iniae 00-1425
[3] = test system: Aeromonas salmonicida NCTC 7812
[4] = test system: Escherichia coli ATCC 25922
[5] = test system: Staphylococcus aureus ATCC 29213
[6] = test system: Shigella flexneri ATCC 12022
[7] = test system: Lactococcus garvieae 00-1422
[8] = test system: Vibrio anguillarum ATCC 19264
[9] = test system: Pseudomonas aeruginosa ATCC 27853
Staphylococcus aureus 1 = test system: Staphylococcus aureus 1
[10] = test system: Candida albicans F7-39/IDE99
Bacillus subtilis 168 = test system: Bacillus subtilis 168
Pseudomonas aeruginosa = test system: Pseudomonas aeruginosa
[11] = test system: Staphylococcus aureus ATCC 43300
[12] = test system: Staphylococcus epidermidis
[13] = test system: Micrococcus luteus CCM 144
Escherichia coli B = test system: Escherichia coli B
Staphylococcus aureus = test system: Staphylococcus aureus
[14] = test system: Streptococcus sobrinus ATCC 6715
[15] = test system: Streptococcus sanguinis ATCC 10556
[16] = test system: Streptococcus mutans UA159
[17] = test system: Pseudomonas aeruginosa CGMCC 1.860
[18] = test system: Pseudomonas aeruginosa 0108
[19] = test system: Staphylococcus aureus USA 300
[20] = test system: Candida albicans ATCC 10231
[21] = test system: Staphylococcus epidermidis ATCC 12228
[22] = test system: Staphylococcus aureus USA 100
[23] = test system: Candida albicans ATCC 90028
[24] = test system: Staphylococcus aureus ATCC 29737
[25] = test system: Staphylococcus aureus P1374
[26] = test system: Staphylococcus aureus AB94004
[27] = test system: Staphylococcus aureus ATCC 25923
[28] = test system: Staphylococcus aureus P1381
[29] = test system: Staphylococcus aureus ATCC 6538
Escherichia coli AB94012 = test system: Escherichia coli AB94012
[30] = test system: Pseudomonas aeruginosa ATCC 9027
[31] = test system: Pseudomonas aeruginosa AB93066
[32] = test system: Pseudomonas aeruginosa DM23155
[33] = test system: Klebsiella pneumoniae DM4299
[34] = test system: Acinetobacter johnsonii NCDC 0072
[35] = test system: Bacillus cereus NCDC 0240
[36] = test system: Escherichia coli MTCC 0723
[37] = test system: Listeria monocytogenes ATCC 19111
[38] = test system: Pseudomonas aeruginosa NCDC 0105
[39] = test system: Salmonella enterica subsp. enterica serovar Typhimurium ATCC 14028
[40] = test system: Staphylococcus aureus NCDC 0111

Structure (SMILES): CC[C@H](C)[C@H](NC(=O)CNC(=O)[C@H](CCCN=C(N)N)NC(=O)[C@H](Cc1ccccc1)NC(=O)[C@@H](NC(=O)[C@H](Cc1cnc[nH]1)NC(=O)[C@H](Cc1cnc[nH]1)NC(=O)[C@H](Cc1ccccc1)NC(=O)[C@@H](N)Cc1ccccc1)[C@@H](C)CC)C(=O)N[C@H](C(=O)N[C@@H](Cc1cnc[nH]1)C(=O)N[C@H](C(=O)NCC(=O)N[C@@H](CCCCN)C(=O)N[C@H](C(=O)N[C@H](C(=O)N[C@@H](Cc1cnc[nH]1)C(=O)N[C@@H](CCCCN)C(=O)N[C@@H](CC(C)C)C(=O)N[C@H](C(=O)N[C@H](C(=O)NCC(=O)O)[C@@H](C)O)C(C)C)[C@@H](C)CC)[C@@H](C)O)C(C)C)C(C)C [FFHHIFRGIVHVGKTIHKLVTG]
- MIC [1]: 1.23 µM (≈ 3.13 µg/mL)
- MIC [2]: 2.46 µM (≈ 6.26 µg/mL)
- MIC [3]: ≥ 78.6 µM
- MIC [4]: 4.91 µM (≈ 12.5 µg/mL)
- MIC [5]: 2.46 µM (≈ 6.26 µg/mL)
- MIC [6]: 2.46 µM (≈ 6.26 µg/mL)
- MIC [7]: 0.61 µM (≈ 1.55 µg/mL)
- MIC [8]: 4.91 µM (≈ 12.5 µg/mL)

Structure (SMILES): CC[C@H](C)[C@H](NC(=O)CN)C(=O)N[C@@H](CC(C)C)C(=O)N[C@@H](CO)C(=O)N[C@@H](CO)C(=O)N[C@@H](CC(C)C)C(=O)N[C@@H](CC(C)C)C(=O)N[C@@H](CCCCN)C(=O)N[C@@H](CCCCN)C(=O)N[C@@H](CC(C)C)C(=O)N[C@@H](CCCCN)C(=O)N[C@@H](CCCCN)C(=O)N[C@H](C(=O)N[C@H](C(=O)N[C@@H](C)C(=O)N[C@@H](CCCCN)C(N)=O)[C@@H](C)CC)[C@@H](C)CC [GILSSLLKKLKKIIAK]
- MIC [9]: 5 µM (≈ 8.76 µg/mL)
- MIC (Staphylococcus aureus 1): 3.8 µM (≈ 6.66 µg/mL)
- MIC [10]: 10 µM (≈ 17.5 µg/mL)
- MIC (Bacillus subtilis 168): 7 µM (≈ 12.3 µg/mL)
- MIC (Pseudomonas aeruginosa): 7.5 µM (≈ 13.1 µg/mL)
- MIC [11]: 16 µM (≈ 28 µg/mL)
- MIC [12]: 1.8 µM (≈ 3.15 µg/mL)
- MIC [13]: 3 µM (≈ 5.26 µg/mL)
- MIC (Escherichia coli B): 8 µM (≈ 14 µg/mL)
- MIC (Staphylococcus aureus): 5 µM (≈ 8.76 µg/mL)

Structure (SMILES): CC(C)[C@H](NC(=O)[C@H](CCCCN)NC(=O)[C@H](CCCCN)NC(=O)[C@H](C)NC(=O)[C@H](CCCCN)NC(=O)[C@H](CCCCN)NC(=O)[C@H](Cc1ccccc1)NC(=O)[C@H](Cc1ccccc1)NC(=O)[C@H](CCCCN)NC(=O)[C@H](CCCCN)NC(=O)[C@H](Cc1c[nH]c2ccccc12)NC(=O)CN)C(=O)NCC(=O)N[C@@H](CCCCN)C(=O)O [GWKKFFKKAKKVGK]
- MIC [14]: ≥ 305 µM
- MIC [15]: ≥ 305 µM
- MIC [16]: ≥ 305 µM

Structure (SMILES): CC[C@H](C)[C@H](N)C(=O)N[C@@H](CCCCN)C(=O)N[C@@H](CCCCN)C(=O)N[C@@H](Cc1c[nH]c2ccccc12)C(=O)N[C@@H](CC(C)C)C(=O)N[C@@H](CO)C(=O)N[C@@H](CCCCN)C(=O)N[C@H](C(=O)N[C@@H](CCCCN)C(=O)N[C@@H](CCCCN)C(=O)N[C@@H](CC(C)C)C(=O)N[C@@H](CC(C)C)C(=O)N[C@@H](CCCCN)C(N)=O)[C@@H](C)CC [IKKWLSKIKKLLK]
- MIC [17]: 3.13 µM (≈ 5.09 µg/mL)
- MIC [18]: 6.25 µM (≈ 10.2 µg/mL)

Second part, the compound after the results:

- MIC [19]: 12.5 µM (≈ 13 µg/mL)
- MIC [20]: 3.75 µM (≈ 3.9 µg/mL)
- MIC [21]: 3.75 µM (≈ 3.9 µg/mL)
- MIC [22]: 12.5 µM (≈ 13 µg/mL)
- MIC [23]: 1.56 µM (≈ 1.62 µg/mL)
- MIC [4]: 15 µM (≈ 15.6 µg/mL)
- MIC [24]: ≥ 60.1 µM
Structure (SMILES): CC[C@H](C)[C@H](N)C(=O)N[C@@H](CCCN=C(N)N)C(=O)N[C@H](C(=O)N[C@@H](CCCCN)C(=O)N[C@H](C(=O)N[C@@H](CCCN=C(N)N)C(=O)N[C@H](C(=O)N[C@@H](CCCCN)C(N)=O)[C@@H](C)CC)[C@@H](C)CC)[C@@H](C)CC [IRIKIRIK]

- MIC [25]: 3.9 µM (≈ 6.25 µg/mL)
- MIC [26]: 7.8 µM (≈ 12.5 µg/mL)
- MIC [27]: 7.8 µM (≈ 12.5 µg/mL)
- MIC [28]: 15.6 µM (≈ 25 µg/mL)
- MIC [29]: 7.8 µM (≈ 12.5 µg/mL)
- MIC (Escherichia coli AB94012): 31.2 µM (≈ 50 µg/mL)
- MIC [30]: 15.6 µM (≈ 25 µg/mL)
- MIC [4]: 62.4 µM (≈ 99.9 µg/mL)
- MIC [31]: ≥ 62.4 µM
Structure (SMILES): CC[C@H](C)[C@H](NC(=O)[C@H](CO)NC(=O)[C@H](CCCCN)NC(=O)[C@@H](NC(=O)CNC(=O)[C@H](CCCCN)NC(=O)[C@H](Cc1c[nH]c2ccccc12)NC(=O)[C@H](CC(C)C)NC(=O)[C@H](CCCCN)NC(=O)CNC(=O)[C@H](CC(C)C)NC(=O)[C@@H](NC(=O)[C@@H](N)CC(C)C)[C@@H](C)CC)C(C)C)C(=O)N[C@@H](Cc1ccccc1)C(N)=O [LILGKLWKGVKSIF]

- MIC [32]: 6 µM (≈ 7.95 µg/mL)
- MIC [4]: 6 µM (≈ 7.95 µg/mL)
- MIC [33]: 6 µM (≈ 7.95 µg/mL)
Structure (SMILES): CC(=O)N[C@@H](CCCN=C(N)N)C(=O)NCC(=O)N[C@@H](CCCN=C(N)N)C(=O)N[C@@H](CCCCN)C(=O)N[C@H](C(=O)N[C@H](C(=O)N[C@@H](CCCN=C(N)N)C(=O)N[C@@H](CCCN=C(N)N)C(=O)N[C@@H](CCCCN)C(=O)N[C@@H](CCCCN)C(=O)O)C(C)C)C(C)C [RGRKVVRRKK]

- MIC [34]: ≥ 50 µM
- MIC [35]: 1.5 µM (≈ 3.87 µg/mL)
- MIC [9]: 25 µM (≈ 64.6 µg/mL)
- MIC [36]: 6 µM (≈ 15.5 µg/mL)
- MIC [37]: 6 µM (≈ 15.5 µg/mL)
- MIC [38]: ≥ 50 µM
- MIC [39]: 50 µM (≈ 129 µg/mL)
- MIC [40]: 12.5 µM (≈ 32.3 µg/mL)
- MIC [5]: 6 µM (≈ 15.5 µg/mL)
Structure (SMILES): CC[C@H](C)[C@H](NC(=O)[C@@H](N)CCCN=C(N)N)C(=O)N[C@@H](CCCN=C(N)N)C(=O)N[C@@H](Cc1ccccc1)C(=O)N1CCC[C@H]1C(=O)N[C@@H](Cc1c[nH]c2ccccc12)C(=O)N1CCC[C@H]1C(=O)N[C@@H](Cc1c[nH]c2ccccc12)C(=O)N[C@@H](CCCN=C(N)N)C(=O)N[C@@H](Cc1c[nH]c2ccccc12)C(=O)N1CCC[C@H]1C(=O)N[C@@H](Cc1c[nH]c2ccccc12)C(=O)N[C@@H](Cc1c[nH]c2ccccc12)C(=O)N1CCC[C@H]1C(=O)N[C@@H](CCCN=C(N)N)C(=O)N[C@@H](Cc1ccccc1)C(=O)N[C@@H](CCCN=C(N)N)C(=O)NCC(=O)O [RIRFPWPWRWPWWPRFRG]
